Patent US20130217655A1, “COMPOSITIONS FOR TREATING PSORIASIS OF THE SCALP” (Dermipsor Ltd., priority 2010, published 2013)

Assay: skin penetration of calcipotriol from the formulation
Details: calcipotriol in the present formulation, topical

penetration of the skin: does not penetrate the skin
SMILES: C=C1/C(=C\C=C2/CCC[C@]3(C)[C@@H]([C@H](C)/C=C/[C@@H](O)C4CC4)CC[C@@H]23)C[C@@H](O)C[C@@H]1O [Calcipotriol]
